# Results: patent publication US11192921B2 (priority 2017, dated 2021)
# Several values for one entry are separate records, joined by “and”; a condition that tells them apart may be missing. Equal values may be shown once. Read-outs that look alike come from different tables or passages of the source. Marks after values point to notes of the source that are not given here.
# Key:
# Female Kunming mice [1] = type: in vivo
# male BALB/c mice [2] = experiment: cancer-induced pain (CIP) model, thermosensitive test; type: in vivo
# Experimental: Influence of Analgesic Polypeptides on Neuralgia in a Cancer-Induced Pain (CIP) Model
# A number of male BALB/c mice each weighing 25-30 g were used.
# Von Fery monofilament; a microsyringe, 5 mg/mL solutions of polypeptides I, II and II I; normal saline.
# (§1) BALB/c mice were taken, and the right sciatic nerve was exposed; ascites containing 5×10^4 Meth A sarcoma cells were injected into the proximal nerve near the sciatic nerve trochanter far from the tendon branch of the posterior biceps, the wound was closed, and the same volume of normal saline was injected into the left side by performing a sham operation.
# 1.3.1 Thermosensitive Test
# On the 4th, 7th, 10th and 14th days after inoculation, the latency of foot lifting caused by heat radiation stimulation to animals was observed, and the heat radiation intensity was adjusted to cause the latency of foot lifting of normal mice to be (10±2) s.
# All data was expressed as M±SD and subjected to one-way ANOVA.
# male BALB/c mice [3] = experiment: cancer-induced pain (CIP) model, gross behavior; type: in vivo; details: 14th day after inoculation
# Experimental: as §1
# On the 4th, 7th, 10th and 14th days after inoculation, spontaneous pain and foot drop and the like occurred before the occurrence of thermal sensitivity and mechanical pain sensitivity behaviors, […]
# Kunming mice [4] = type: in vivo
# Female Kunming mice [5] = tested on: Female Kunming mice
# SD rats = experiment: pain threshold of trigeminal nerve (trigeminal neuralgia model); type: in vivo; details: for highest pain threshold on the operative side / pain threshold on the opposite side: 3 h after injection; for Pain threshold: intraperitoneal
# Female Kunming mice [6] = tested on: Female Kunming mice; remark: listed apart in the source
# Kunming mice [7] = details: mouse, in vivo
# Female Kunming mice [8] = tested on: Female Kunming mice; remark: listed apart in the source
# [9] = 50 μg/kg, injected subcutaneously
# [10] = 100 μg/kg, injected subcutaneously
substance,measurement,setting,value
Gly-Ser-Cys-Ser-Thr-Pro-Pro-d{Cys}-Val-Leu-Tyr-Ser [Polypeptide I],Pain threshold,Female Kunming mice [1]; 0 min,28.32 ± 0.21 s
same,Pain threshold,"Female Kunming mice [1]; mouse, in vivo, ip",25.21 ± 0.42^∧∧ s and 31.32 ± 0.32*^∧ s and 24.23 ± 0.42^∧ s and 21.39 ± 0.45^∧ s and 29.23 ± 0.42 s and 23.44 ± 0.24 s
same,heat thresholds of mice compared with the normal saline negative control group,"Female Kunming mice [1]; mouse, in vivo, ip",effectively increase the heat thresholds of mice
same,increase of the latency of foot lifting,male BALB/c mice [2]; 14th day after inoculation,particularly significant
same,Latency of foot lifting before administration,"male BALB/c mice [2]; heat radiation stimulation, before administration",10.56 ± 0.89
same,Latency (D) of foot lifting after administration,"male BALB/c mice [2]; heat radiation stimulation, day 4",10.01 ± 0.23
same,Latency (D) of foot lifting after administration,"male BALB/c mice [2]; heat radiation stimulation, day 7",9.26 ± 0.99
same,Latency (D) of foot lifting after administration,"male BALB/c mice [2]; heat radiation stimulation, day 10",8.56 ± 0.23
same,Latency (D) of foot lifting after administration,"male BALB/c mice [2]; heat radiation stimulation, day 14",7.44 ± 0.85
same,left foot lifting behavior,male BALB/c mice [3],obviously observed
same,Pain threshold (tail flick),Kunming mice [4]; 0 min,2.31 ± 0.12 s
same,Pain threshold (tail flick),Kunming mice [4]; 15 min,2.12 ± 0.21^∧∧ s
same,Pain threshold (tail flick),Kunming mice [4]; 30 min,2.12 ± 0.12 s
same,Pain threshold (tail flick),Kunming mice [4]; 45 min,3.22 ± 0.12^∧ s
same,Pain threshold (tail flick),Kunming mice [4]; 60 min,2.12 ± 0.21*^∧ s
same,Pain threshold (tail flick),Kunming mice [4]; 75 min,2.12 ± 0.12 s
same,Pain threshold (tail flick),Kunming mice [4]; 90 min,2.32 ± 0.14 s
same,difference from the conotoxin group during a time period (^^P<0.01),"Kunming mice [4]; mouse, in vivo",significantly different from the conotoxin group
same,Duration of the immobility of mice in tail suspension tests,Female Kunming mice [5]; 1 h,20.39 ± 1.21^ s
same,Duration of the immobility of mice in tail suspension tests,Female Kunming mice [5]; 24 h,18.99 ± 1.48 s
same,Duration of the immobility of mice in tail suspension tests,Female Kunming mice [5]; Time 0,20.57 ± 1.65 s
same,data of tail suspension test compared with the normal saline group,"Female Kunming mice [5]; mouse, in vivo, ip",no significant difference
same,toxic side effects compared with the conotoxin (tail suspension),"Female Kunming mice [5]; mouse, in vivo, ip",lower toxic side effects
same,animal reaction thresholds,"SD rats; 50 μg/kg and 100 μg/kg, injected subcutaneously",significantly increased
same,time the pain thresholds lasted,SD rats; [9],1 h
same,highest pain threshold on the operative side,SD rats; [9],2.3 ± 0.5 g
same,pain threshold on the opposite side,SD rats; [9],1.2 ± 0.2 g
same,time the effect on the operative side lasted,SD rats; [10],about 8 h
same,highest pain threshold on the operative side,SD rats; [10],7.4 ± 0.9 g
same,pain threshold on the opposite side,SD rats; [10],3.2 ± 1.3 g
same,pain threshold change,"SD rats; 300 μg/kg, subcutaneously",not significantly increased
same,Pain threshold,"SD rats; Dose 50 (μg/kg), 0 h",25.44 ± 0.23 s
same,Pain threshold,"SD rats; Dose 50 (μg/kg), 1 h",26.35 ± 0.65 s
same,Pain threshold,"SD rats; Dose 50 (μg/kg), 2 h",26.89 ± 0.23 s
same,Pain threshold,"SD rats; Dose 50 (μg/kg), 3 h",27.56 ± 0.56 s
same,Pain threshold,"SD rats; Dose 50 (μg/kg), 4 h",26.45 ± 0.78 s
same,Pain threshold,"SD rats; Dose 50 (μg/kg), 5 h",25.89 ± 0.12 s
same,Pain threshold,"SD rats; Dose 100 (μg/kg), 0 h",25.11 ± 0.56 s
same,Pain threshold,"SD rats; Dose 100 (μg/kg), 1 h",27.86 ± 0.95 s
same,Pain threshold,"SD rats; Dose 100 (μg/kg), 2 h",28.12 ± 0.65 s
same,Pain threshold,"SD rats; Dose 100 (μg/kg), 3 h",29.46 ± 0.61 s
same,Pain threshold,"SD rats; Dose 100 (μg/kg), 4 h",26.43 ± 0.62 s
same,Pain threshold,"SD rats; Dose 100 (μg/kg), 5 h",25.68 ± 0.33 s
same,Pain threshold,"SD rats; Dose 300 (μg/kg), 0 h",26.65 ± 0.41 s
same,Pain threshold,"SD rats; Dose 300 (μg/kg), 1 h",30.56 ± 0.11 s
same,Pain threshold,"SD rats; Dose 300 (μg/kg), 2 h",30.53 ± 0.62 s
same,Pain threshold,"SD rats; Dose 300 (μg/kg), 3 h",29.56 ± 0.12 s
same,Pain threshold,"SD rats; Dose 300 (μg/kg), 4 h",28.15 ± 0.32 s
same,Pain threshold,"SD rats; Dose 300 (μg/kg), 5 h",27.15 ± 0.65 s
same,Movement distances of mice in open field tests,Female Kunming mice [6]; 1 h,20.39 ± 1.21^
same,Movement distances of mice in the center area in open field tests,Female Kunming mice [6]; 1 h,20.39 ± 1.21^
same,Movement distances of mice in the peripheral area in open field tests,Female Kunming mice [6]; 1 h,20.39 ± 1.21^
same,Number of entrances to the center area in open field tests,Female Kunming mice [6]; 1 h,20.39 ± 1.21^
same,Number of entrances to the peripheral area in open field tests,Female Kunming mice [6]; 1 h,20.39 ± 1.21^
same,Residence time in the center area in open field tests,Female Kunming mice [6]; 1 h,20.39 ± 1.21^ s
same,Residence time in the peripheral area in open field tests,Female Kunming mice [6]; 1 h,20.39 ± 1.21^ s
same,Movement distances of mice in open field tests,Female Kunming mice [6]; 24 h,18.99 ± 1.48 m
same,Movement distances of mice in the center area in open field tests,Female Kunming mice [6]; 24 h,18.99 ±1.48 m
same,Movement distances of mice in the peripheral area in open field tests,Female Kunming mice [6]; 24 h,18.99 ± 1.48 m
same,Number of entrances to the center area in open field tests,Female Kunming mice [6]; 24 h,18.99 ± 1.48
same,Number of entrances to the peripheral area in open field tests,Female Kunming mice [6]; 24 h,18.99 ± 1.48
same,Residence time in the center area in open field tests,Female Kunming mice [6]; 24 h,18.99 ± 1.48 s
same,Residence time in the peripheral area in open field tests,Female Kunming mice [6]; 24 h,18.99 ± 1.48 s
same,Movement distances of mice in open field tests,Female Kunming mice [6]; Time 0,20.57 ± 1.65 m
same,Movement distances of mice in the center area in open field tests,Female Kunming mice [6]; Time 0,20.57 ±1.65 m
same,Movement distances of mice in the peripheral area in open field tests,Female Kunming mice [6]; Time 0,20.57 ± 1.65 m
same,Number of entrances to the center area in open field tests,Female Kunming mice [6]; Time 0,20.57 ± 1.65
same,Number of entrances to the peripheral area in open field tests,Female Kunming mice [6]; Time 0,20.57 ± 1.65
same,Residence time in the center area in open field tests,Female Kunming mice [6]; Time 0,20.57 ± 1.65 s
same,Residence time in the peripheral area in open field tests,Female Kunming mice [6]; Time 0,20.57 ± 1.65 s
same,side effects compared with conotoxin (open field),"Female Kunming mice [6]; mouse, in vivo, ip",lower side effects
same,various indexes in open field experiments compared with the normal saline group,"Female Kunming mice [6]; mouse, in vivo, ip",no significant difference
same,analgesic effects in formalin-induced pain experiments,Kunming mice [7],good analgesic effects
same,"cumulative foot licking time, Phase I",Kunming mice [7],46.44 ± 10.28*^
same,"cumulative foot licking time, Phase II",Kunming mice [7],42.10 ± 14.32*^
same,Movement duration of mice in forced swimming tests,Female Kunming mice [8]; 1 h,20.39 ± 1.21^ s
same,Movement duration of mice in forced swimming tests,Female Kunming mice [8]; 24 h,18.99 ± 1.48 s
same,Movement duration of mice in forced swimming tests,Female Kunming mice [8]; Time 0,20.57 ± 1.65 s
same,toxic side effects compared with the conotoxin (forced swimming),"Female Kunming mice [8]; mouse, in vivo, ip",lower toxic side effects
